Assay results as given in patent US9032821B2, “Articles for screening insect pest-repellents and uses thereof” (National Taiwan University, priority 2012, dated 2015).
Several values for one entry are separate records, joined by “and”; a condition that tells them apart may be missing. Equal values may be shown once.

Legend:
Format in all cases: in vivo
fleas [1] = test: Flea repellent test, tapered-end filter paper article in concave surface (round-ended glass) tube
From the text: (§1) Two types of filter paper articles were constructed. Specifically, article with two blunt ends (herein after “blunt-end article”) and article with one tapered end and one blunt end (herein after “tapered-end article”), were constructed in accordance with the procedures depicted in FIG. 2, except minor modifications for the blunt-end article, in which each of the two filter paper stripes were not cut diagonally from one end, and therefore both ends remained blunt after the two filter paper stripes were adhered. Repellents test were then conducted using the respective articles so as to develop an improved system and/or method for screening a candidate insect pest-repellent.

fleas [2] = test: Flea repellent test, blunt-end filter paper article in flat surface tube (inverted centrifuge tube); conditions: 20 fleas, counted after 30 min, tests #1-3
From the text: as §1

fleas [3] = test: Screening of essential oils as flea-repellents, tapered-end article in round-ended tube, repellency (PR %); conditions: concentration of about 1% (wt %)
From the text: In another aspect, a method of screening a candidate insect pest-repellant using the article 100 of FIG. 1 is provided. Referring again to FIG. 2, during the operation of screening an effective insect pest-repellent, a few drops of a candidate insect pest-repellent solution and a control solution (e.g., a buffer or water) are respectively applied onto the two paper strips (i.e., the first and second paper strips (110, 120) respectively having the first and second tapered ends (111, 121)), and allowed them to spread evenly throughout the respective papers. The two paper strips (110, 120) are then let standing for a few minutes to dry. […] In one example, the entire set up (i.e., including the article 100, the tube 140 and the fleas) is let stand for at least 30 min, before the number of insect pests on respective paper strips (110, 120) are counted. Repellency (PR %) of the candidate insect pest-repellent is determined by the following equation, […]
The article was let stand for about 30 min until it was dried. […] After 30 min, the numbers of fleas on respective sides of the filtered paper article was then counted. Repellency (PR %) of each candidate essential oils was calculated in accordance with the following equation, […]

[4] = tapered end article + concave surface tube, 20 fleas, counted after 30 min, tests #1-3

| Structure (SMILES) | repellent activity towards fleas (fleas [1]; in words, from Table 1, compared with the two commercial flea repellents) | number of fleas on Control (untreated) side of the article (fleas [1]; [4]) | number of fleas on Treated side of the article (fleas [1]; [4]) | number of fleas in the Bottom of the tube (fleas [2]) | number of fleas on Control (untreated) side of the article (fleas [2]) | number of fleas on Treated side of the article (fleas [2]) | repellency (fleas [3]) |
| --- | --- | --- | --- | --- | --- | --- | --- |
| CCO [75% Ethanol, ethanol] | no repellent activity | 9 and 11 | 9 and 11 and 8 | 4 and 2 and 3 | 10 and 8 and 6 | 6 and 10 and 11 |  |
| O=CC=Cc1ccccc1 [cinnamaldehyde] |  |  |  |  |  |  | at least 97% |
